Test results: patent US20260317319A1, “NOVEL ERGOLINES AND METHODS OF TREATING MOOD DISORDERS” (Gilgamesh Pharma Inc., priority 2023, published 2026)
pEC50, pKi: −log10 of the molar value. Several values for one entry are separate records, joined by “and”; a condition that tells them apart may be missing. Equal entries are not always repeated. Where two headings read alike, the source gives them in different places.

Experiments:
[1] = in vitro; assay type: in vitro ADME, human; details: human, microsomes, HLM 0.50 mg/mL, NADPH 1 mM, 1 μM compound, pH 7.4, 37° C., 60 min; for microsomal CLint: read-out: Intrinsic clearance (Clint); for half-life: read-out: half-life (t1/2)
[2] = molecular target: T1, 5-HT2A receptor (Homo sapiens, UniProt P28223); test: biochemical; assay type: binding; parameters: expressed in transfected cells; host or cells: HEK293, stably transfected; details: [3H]ketanserin 1 nM; HEK293 stable cell line; 1 h, 25 °C
Experimental: Affinity of the test compounds for the 5-HT2A receptor was determined in radioligand binding experiments with [^3H]ketanserin by WuXi AppTec (Hong Kong) Limited, using methods adapted from the literature and under conditions described in Table 1.

[3] = in vitro; assay type: in vitro ADME, mouse; details: mouse, microsomes, MLM (male CD-1) 0.50 mg/mL, NADPH 1 mM, 1 μM compound, pH 7.4, 37° C., 60 min; for microsomal CLint: read-out: Intrinsic clearance (Clint); for half-life: read-out: half-life (t1/2)
Text: MLM Stability Pooled MLM from male CD-1 mice (BIOIVT M00501) were used.

[4] = molecular target: T1, 5-HT2A receptor; test: cell-based; assay type: cell-based; parameters: expressed in transfected cells; host or cells: HEK293, stably transfected; details: Ca2+ flux; for pEC50: HEK293; for Emax: HEK293, agonist, read-out: 5-HT2A % Act @ Max Dose
Experimental: (§1) Functional Assays at 5-HT2A, 5-HT2B, and 5-HT1A. Agonist activity at 5-HT2A, 5-HT2B, 5HT2C and 5-HT1A receptors was determined using a FLIPR Ca^2+ flux assay at WuXi AppTec (Hong Kong) Limited according to their standard protocols. Briefly, stably transfected cells expressing the receptor of interest and Gα15 in the case of 5-HT1A (HEK293 for 5-HT2A and 5-HT2B; CHO cells for 5-HT1A) were grown and plated in a 384 well plate and incubated at 37° C. and 5% CO2 overnight. A solution of 250 mM probenecid in 1 mL FLIPR assay buffer was prepared fresh. This was combined with a fluorescent dye (Fluo-4 Direct™) to make a final assay concentration of 2.5 mM. […] The fluorescent dye was then added to the assay plate along with assay buffer to a final volume of 40 μL. The cell plate was incubated for 50 min at 37° C. and 5% CO2 and placed into the FLIPR Tetra along with the compound plate. 10 μL of references and compounds were then transferred from the compound plate into the cell plate and the fluorescent signal was read.

[5] = in vitro; assay type: in vitro ADME, rat; details: rat, microsomes, RLM (male Sprague-Dawley) 0.50 mg/mL, NADPH 1 mM, 1 μM compound, pH 7.4, 37° C., 60 min; for microsomal CLint: read-out: Intrinsic clearance (Clint); for half-life: read-out: half-life (t1/2)
Text: RLM Stability Pooled RLM from male Sprague-Dawley rats (Xenotech R1000) were used.

[6] = molecular target: T2, 5-HT1A receptor (Homo sapiens, UniProt P08908); test: cell-based; details: agonist, Ca2+ flux; for Emax: CHO, read-out: 5-HT1A % Act @ Max Dose; for pEC50: CHO cells with Gα15
T2 construct: expressed in transfected cells; host or cells: CHO cells, stably transfected
T2 sequence (P08908 1-422): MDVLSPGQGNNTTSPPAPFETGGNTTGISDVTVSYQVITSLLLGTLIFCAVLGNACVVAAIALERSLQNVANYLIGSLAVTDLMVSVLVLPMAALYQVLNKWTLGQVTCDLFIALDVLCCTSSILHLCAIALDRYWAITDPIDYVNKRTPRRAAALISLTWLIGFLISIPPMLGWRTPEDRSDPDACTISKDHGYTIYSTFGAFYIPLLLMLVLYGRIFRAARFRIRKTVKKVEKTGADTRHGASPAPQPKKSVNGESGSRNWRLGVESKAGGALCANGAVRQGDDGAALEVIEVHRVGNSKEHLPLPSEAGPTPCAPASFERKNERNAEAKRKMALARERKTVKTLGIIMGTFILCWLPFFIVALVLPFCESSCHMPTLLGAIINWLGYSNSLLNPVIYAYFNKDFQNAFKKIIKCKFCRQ
Experimental: as §1

[7] = molecular target: T3, 5-HT2B receptor (Homo sapiens, UniProt P41595); test: cell-based; assay type: cell-based; details: Ca2+ flux; for Emax: HEK293, agonist, HEK293, max dose, read-out: 5-HT2B % Act @ Max Dose; for pEC50: agonist, HEK293
T3 construct: expressed in transfected cells; host or cells: HEK293, stably transfected
Experimental: as §1

T3 sequence (P41595 whole entry): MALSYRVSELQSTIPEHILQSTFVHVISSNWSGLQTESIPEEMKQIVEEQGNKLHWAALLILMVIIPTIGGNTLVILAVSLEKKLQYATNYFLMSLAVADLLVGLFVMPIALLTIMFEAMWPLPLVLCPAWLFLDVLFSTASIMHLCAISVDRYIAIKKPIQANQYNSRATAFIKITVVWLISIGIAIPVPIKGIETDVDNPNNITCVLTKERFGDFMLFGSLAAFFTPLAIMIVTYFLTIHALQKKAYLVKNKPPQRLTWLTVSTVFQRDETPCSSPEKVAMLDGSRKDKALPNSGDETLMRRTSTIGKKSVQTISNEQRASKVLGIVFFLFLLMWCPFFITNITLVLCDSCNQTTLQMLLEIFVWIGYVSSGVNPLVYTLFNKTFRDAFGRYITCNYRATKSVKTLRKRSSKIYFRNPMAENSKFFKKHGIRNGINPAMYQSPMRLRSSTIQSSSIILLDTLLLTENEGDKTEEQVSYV
T1 sequence (P28223 whole entry): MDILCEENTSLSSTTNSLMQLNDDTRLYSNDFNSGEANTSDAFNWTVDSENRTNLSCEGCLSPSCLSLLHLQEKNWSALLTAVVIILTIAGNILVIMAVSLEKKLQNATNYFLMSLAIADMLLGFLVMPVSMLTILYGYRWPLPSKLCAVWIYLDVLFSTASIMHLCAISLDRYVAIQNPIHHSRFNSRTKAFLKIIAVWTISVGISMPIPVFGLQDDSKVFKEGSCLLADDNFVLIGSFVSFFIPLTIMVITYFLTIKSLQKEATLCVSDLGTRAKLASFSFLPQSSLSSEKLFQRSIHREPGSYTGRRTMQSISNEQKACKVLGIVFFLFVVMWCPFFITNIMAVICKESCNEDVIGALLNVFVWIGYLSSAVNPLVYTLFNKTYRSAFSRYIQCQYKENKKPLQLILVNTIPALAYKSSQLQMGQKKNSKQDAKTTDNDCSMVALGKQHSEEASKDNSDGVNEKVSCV

CCN(CC)C(=O)[C@@H]1C=C2c3cccc4[nH]cc(c34)C[C@H]2N(Cc2ncco2)C1 [Compound 74, (6aR,9R)—N,N-diethyl-7-(oxazol-2-ylmethyl)-4,6,6a,7,8,9-hexahydroindolo[4,3-fg]quinoline-9-carboxamide]
microsomal CLint [1]: 45.5 µL/min/mg
half-life [1]: 30.5 min
pKi [2]: 7.28
microsomal CLint [3]: 83.3 µL/min/mg
half-life [3]: 16.6 min
pEC50 ([4]; agonist): 6.54 and 7.26
5-HT2A % Act @ Max Dose ([4]; agonist, HEK293, max dose): 63% and 89.01%
microsomal CLint [5]: 71.7 µL/min/mg
half-life [5]: 19.3 min
5-HT1A % Act @ Max Dose ([6]; CHO cells with Gα15, max dose): 51.28% and 82.73%

CCN(CC)C(=O)[C@@H]1C=C2c3cccc4[nH]cc(c34)C[C@H]2N(Cc2cnco2)C1 [Compound 75, (6aR,9R)—N,N-diethyl-7-(oxazol-5-ylmethyl)-4,6,6a,7,8,9-hexahydroindolo[4,3-fg]quinoline-9-carboxamide]
microsomal CLint [1]: 35 µL/min/mg
half-life [1]: 39.6 min
pKi [2]: 7.89
microsomal CLint [3]: 83.1 µL/min/mg
half-life [3]: 16.7 min
microsomal CLint [5]: 56.3 µL/min/mg
half-life [5]: 24.6 min

O=C([C@@H]1C=C2c3cccc4[nH]cc(c34)C[C@H]2N(Cc2ccccc2)C1)N1CCCC1 [Compound 84, ((6aR,9R)-7-benzyl-4,6,6a,7,8,9-hexahydroindolo[4,3-fg]quinolin-9-yl)(pyrrolidin-1-yl)methanone]
Emax [7]: 5.16%
pEC50 [7]: < 5.00
microsomal CLint [1]: 89.7 µL/min/mg
half-life [1]: 15.5 min
pKi [2]: 7.75
microsomal CLint [3]: 146 µL/min/mg
half-life [3]: 9.5 min
Emax ([4]; HEK293, max dose): 68.9%
pEC50 ([4]; agonist): 6.05
microsomal CLint [5]: 101 µL/min/mg
half-life [5]: 13.7 min
Emax ([6]; CHO cells with Gα15, max dose): 40.3%
pEC50 [6]: 5.77

O=C([C@H]1C=C2c3cccc4[nH]cc(c34)C[C@H]2N(Cc2ccccc2)C1)N1CCCC1 [Compound 84a, ((6aR,9S)-7-benzyl-4,6,6a,7,8,9-hexahydroindolo[4,3-fg]quinolin-9-yl)(pyrrolidin-1-yl)methanone]
microsomal CLint [1]: 154 µL/min/mg
half-life [1]: 9 min
pKi [2]: < 5.91
microsomal CLint [3]: 784 µL/min/mg
half-life [3]: 1.8 min
microsomal CLint [5]: 257 µL/min/mg
half-life [5]: 5.4 min

CCN(C)C(=O)[C@H]1C=C2c3cccc4[nH]cc(c34)C[C@H]2N(Cc2ccccc2)C1 [Compound 85a, (6aR,9S)-7-benzyl-N-ethyl-N-methyl-4,6,6a,7,8,9-hexahydroindolo[4,3-fg]quinoline-9-carboxamide]
microsomal CLint [1]: 156 µL/min/mg
half-life [1]: 8.9 min
pKi [2]: 6.29
microsomal CLint [3]: 848 µL/min/mg
half-life [3]: 1.6 min
microsomal CLint [5]: 400 µL/min/mg
half-life [5]: 3.5 min

CCCN(CC)C(=O)[C@@H]1C=C2c3cccc4[nH]cc(c34)C[C@H]2N(Cc2ccccc2)C1 [Compound 86, (6aR,9R)-7-benzyl-N-ethyl-N-propyl-4,6,6a,7,8,9-hexahydroindolo[4,3-fg]quinoline-9-carboxamide]
Emax [7]: 7.82%
pEC50 [7]: 5.89
microsomal CLint [1]: 128 µL/min/mg
half-life [1]: 10.9 min
pKi [2]: 8.80
microsomal CLint [3]: 380 µL/min/mg
half-life [3]: 3.6 min
Emax ([4]; HEK293, max dose): 67%
pEC50 ([4]; agonist): 6.03
microsomal CLint [5]: 117 µL/min/mg
half-life [5]: 11.9 min
Emax ([6]; CHO cells with Gα15, max dose): 49.1%
pEC50 [6]: 4.81

CCCN(CC)C(=O)[C@H]1C=C2c3cccc4[nH]cc(c34)C[C@H]2N(Cc2ccccc2)C1 [Compound 86a, (6aR,9S)-7-benzyl-N-ethyl-N-propyl-4,6,6a,7,8,9-hexahydroindolo[4,3-fg]quinoline-9-carboxamide]
microsomal CLint [1]: 95.2 µL/min/mg
half-life [1]: 14.6 min
pKi [2]: 6.17
microsomal CLint [3]: 1010 µL/min/mg
half-life [3]: 1.4 min
microsomal CLint [5]: 330 µL/min/mg
half-life [5]: 4.2 min

C[C@H]1C[C@H](C)N1C(=O)[C@@H]1C=C2c3cccc4[nH]cc(c34)C[C@H]2N(Cc2ccccc2)C1 [Compound 87, ((6aR,9R)-7-benzyl-4,6,6a,7,8,9-hexahydroindolo[4,3-fg]quinolin-9-yl)((2S,4S)-2,4-dimethylazetidin-1-yl)methanone]
Emax [7]: 10%
pEC50 [7]: < 5.52
microsomal CLint [1]: 97.2 µL/min/mg
half-life [1]: 14.3 min
pKi [2]: 8.68
microsomal CLint [3]: 681 µL/min/mg
half-life [3]: 2 min
Emax ([4]; HEK293, max dose): 61.2%
pEC50 ([4]; agonist): 6.17
microsomal CLint [5]: 60.1 µL/min/mg
half-life [5]: 23 min
Emax ([6]; CHO cells with Gα15, max dose): 58.2%
pEC50 [6]: 4.27

CC[C@@H](C)NC(=O)[C@@H]1C=C2c3cccc4[nH]cc(c34)C[C@H]2N(Cc2ccccc2)C1 [Compound 88, (6aR,9R)-7-benzyl-N—((R)-sec-butyl)-4,6,6a,7,8,9-hexahydroindolo[4,3-fg]quinoline-9-carboxamide]
Emax [7]: 0.88%
pEC50 [7]: < 5.00
microsomal CLint [1]: 455 µL/min/mg
half-life [1]: 3 min
pKi [2]: 8.51
microsomal CLint [3]: 774 µL/min/mg
half-life [3]: 1.8 min
Emax ([4]; HEK293, max dose): 73.6%
pEC50 ([4]; agonist): 6.46
microsomal CLint [5]: 246 µL/min/mg
half-life [5]: 5.6 min
Emax ([6]; CHO cells with Gα15, max dose): 76.7%
pEC50 [6]: 5.06

CC[C@@H](C)NC(=O)[C@H]1C=C2c3cccc4[nH]cc(c34)C[C@H]2N(Cc2ccccc2)C1 [Compound 88a, (6aR,9S)-7-benzyl-N—((R)-sec-butyl)-4,6,6a,7,8,9-hexahydroindolo[4,3-fg]quinoline-9-carboxamide]
microsomal CLint [1]: 302 µL/min/mg
half-life [1]: 4.6 min
pKi [2]: 6.72
microsomal CLint [3]: 837 µL/min/mg
half-life [3]: 1.7 min
microsomal CLint [5]: 830 µL/min/mg
half-life [5]: 1.7 min

CCN(CC)C(=O)[C@H]1C=C2c3cccc4[nH]cc(c34)C[C@H]2N(CC2CCCCC2)C1 [Compound 89a, (6aR,9S)-7-(cyclohexylmethyl)-N,N-diethyl-4,6,6a,7,8,9-hexahydroindolo[4,3-fg]quinoline-9-carboxamide]
microsomal CLint [1]: 91.5 µL/min/mg
half-life [1]: 15.2 min
pKi [2]: 6.68
microsomal CLint [3]: 743 µL/min/mg
half-life [3]: 1.9 min
Emax ([4]; HEK293, max dose): 3.92%
pEC50 ([4]; agonist): < 6.00
microsomal CLint [5]: 304 µL/min/mg
half-life [5]: 4.6 min

CCN(CC)C(=O)[C@H]1C=C2c3cccc4[nH]cc(c34)C[C@H]2N(Cc2ccc(C)cc2)C1 [Compound 97a, (6aR,9S)—N,N-diethyl-7-(4-methylbenzyl)-4,6,6a,7,8,9-hexahydroindolo[4,3-fg]quinoline-9-carboxamide]
pKi [2]: < 5.91
pEC50 ([4]; agonist): < 5.90

CCN(CC)C(=O)[C@@H]1C=C2c3cccc4[nH]cc(c34)C[C@H]2N(Cc2cccs2)C1 [Compound 104]
pEC50 [7]: 6.14
pKi [2]: 8.85
pEC50 ([4]; agonist): 6.07
pEC50 [6]: 6.14
